Measured values reported in PubChem BioAssay (NCI).
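Five concentrations, 48 hours, 96-well plates. GI50: concentration for 50% inhibition of growth. Definition used: TGI = concentration required for complete inhibition of growth.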

Assays:
Assay in all cases: DTP human tumour cell line panel, 48 h
[1] = tested on: SN12C renal
[2] = tested on: T-47D breast
[3] = tested on: SF-539 CNS
[4] = tested on: SW-620 colon
[5] = tested on: IGROV1 ovarian
[6] = tested on: SK-MEL-5 melanoma
[7] = tested on: CAKI-1 renal
[8] = tested on: OVCAR-5 ovarian
[9] = tested on: NCI-H226 lung
[10] = tested on: HT29 colon
[11] = tested on: SR leukemia
[12] = tested on: K-562 leukemia
[13] = tested on: NCI-H23 lung
[14] = tested on: MDA-MB-435
[15] = tested on: HOP-92 NSCLC
[16] = tested on: 786-0 renal
[17] = tested on: HCC-2998 colon
[18] = tested on: M14 melanoma
[19] = tested on: DU-145 prostate
[20] = tested on: NCI-H522 lung
[21] = tested on: ACHN renal
[22] = tested on: MALME-3M melanoma
[23] = tested on: SK-OV-3 ovarian
[24] = tested on: HCT-15 colon
[25] = tested on: RPMI-8226 leukemia
[26] = tested on: KM12 colon
[27] = tested on: MDA-MB-231 breast
[28] = tested on: U251 CNS
[29] = tested on: HCT-116 colon
[30] = tested on: MOLT-4 leukemia
[31] = tested on: SNB-75 CNS
[32] = tested on: SK-MEL-2 melanoma
[33] = tested on: PC-3 prostate
[34] = tested on: HS 578T breast
[35] = tested on: A498 renal
[36] = tested on: CCRF-CEM leukemia
[37] = tested on: MCF7 breast
[38] = tested on: TK-10 renal
[39] = tested on: UACC-257 melanoma
[40] = tested on: SF-295 CNS
[41] = tested on: NCI/ADR-RES ovarian
[42] = tested on: NCI-H460 lung
[43] = tested on: SK-MEL-28 melanoma
[44] = tested on: RXF 393 renal
[45] = tested on: UACC-62 melanoma
[46] = tested on: HOP-62 NSCLC
[47] = tested on: HL-60(TB) leukemia
[48] = tested on: A549 NSCLC
[49] = tested on: LOX IMVI melanoma
[50] = tested on: UO-31 renal
[51] = tested on: SF-268 CNS
[52] = tested on: BT-549 breast
[53] = tested on: EKVX NSCLC
[54] = tested on: SNB-19 CNS
[55] = tested on: OVCAR-4 ovarian

**Q.** For `COc1ccc(N(C)c2cc(C#N)nc3ccccc23)cc1N`, which GI50 [1] is on record?
**A.** The GI50 was < 10 nM.

**Q.** What about the TGI [1] of the same molecule?
**A.** The TGI was > 34300 nM.

**Q.** What about the GI50 [2] of the same molecule?
**A.** The GI50 was 7610 nM.

**Q.** What about the TGI [2] of the same molecule?
**A.** Its TGI is > 100000 nM.

**Q.** What about the GI50 [3] of the same molecule?
**A.** Its GI50 is < 10 nM.

**Q.** And the TGI [3]?
**A.** Its TGI is < 10 nM.

**Q.** And the GI50 [4]?
**A.** The GI50 was < 10 nM.

**Q.** What about the TGI [4] of the same molecule?
**A.** Its TGI is > 100000 nM.

**Q.** And the GI50 [5]?
**A.** The GI50 was < 10 nM.

**Q.** And the TGI [5]?
**A.** The TGI was > 100000 nM.

**Q.** What about the GI50 [6] of the same molecule?
**A.** Its GI50 is < 10 nM.

**Q.** And the TGI [6]?
**A.** The TGI was < 10 nM.

**Q.** And the GI50 [7]?
**A.** The GI50 was < 10 nM.

**Q.** And the TGI [7]?
**A.** Its TGI is > 100000 nM.

**Q.** And the GI50 [8]?
**A.** Its GI50 is < 10 nM.

**Q.** What about the TGI [8] of the same molecule?
**A.** The TGI was > 100000 nM.

**Q.** And the GI50 [9]?
**A.** Its GI50 is < 10 nM.

**Q.** What about the TGI [9] of the same molecule?
**A.** The TGI was > 100000 nM.

**Q.** What about the GI50 [10] of the same molecule?
**A.** Its GI50 is < 10 nM.

**Q.** And the TGI [10]?
**A.** The TGI was < 10 nM.

**Q.** What about the GI50 [11] of the same molecule?
**A.** Its GI50 is < 10 nM.

**Q.** What about the TGI [11] of the same molecule?
**A.** The TGI was > 73900 nM.

**Q.** What about the GI50 [12] of the same molecule?
**A.** Its GI50 is < 10 nM.

**Q.** What about the TGI [12] of the same molecule?
**A.** Its TGI is > 100000 nM.

**Q.** What about the GI50 [13] of the same molecule?
**A.** The GI50 was < 10 nM.

**Q.** What about the TGI [13] of the same molecule?
**A.** The TGI was > 54100 nM.

**Q.** What about the GI50 [14] of the same molecule?
**A.** The GI50 was < 10 nM.

**Q.** And the TGI [14]?
**A.** Its TGI is < 10 nM.

**Q.** What about the TGI [15] of the same molecule?
**A.** The TGI was > 76200 nM.

**Q.** What about the GI50 [16] of the same molecule?
**A.** The GI50 was < 10 nM.

**Q.** What about the TGI [16] of the same molecule?
**A.** Its TGI is > 100000 nM.

**Q.** And the GI50 [17]?
**A.** Its GI50 is < 10 nM.

**Q.** And the TGI [17]?
**A.** The TGI was 131 nM.

**Q.** And the GI50 [18]?
**A.** Its GI50 is < 10 nM.

**Q.** And the TGI [18]?
**A.** The TGI was > 100000 nM.

**Q.** What about the GI50 [19] of the same molecule?
**A.** Its GI50 is < 10 nM.

**Q.** And the TGI [19]?
**A.** The TGI was > 100000 nM.

**Q.** And the GI50 [20]?
**A.** Its GI50 is < 10 nM.

**Q.** What about the TGI [20] of the same molecule?
**A.** Its TGI is < 10 nM.

**Q.** And the GI50 [21]?
**A.** Its GI50 is < 10 nM.

**Q.** And the TGI [21]?
**A.** The TGI was > 100000 nM.

**Q.** And the GI50 [22]?
**A.** The GI50 was < 10 nM.

**Q.** And the TGI [22]?
**A.** The TGI was > 84600 nM.

**Q.** And the GI50 [23]?
**A.** The GI50 was < 18.7 nM.

**Q.** And the TGI [23]?
**A.** The TGI was > 100000 nM.

**Q.** What about the GI50 [24] of the same molecule?
**A.** The GI50 was < 10 nM.

**Q.** And the GI50 [25]?
**A.** Its GI50 is < 10 nM.

**Q.** And the TGI [25]?
**A.** Its TGI is > 54100 nM.

**Q.** And the GI50 [26]?
**A.** Its GI50 is < 10 nM.

**Q.** And the TGI [26]?
**A.** Its TGI is > 45400 nM.

**Q.** What about the GI50 [27] of the same molecule?
**A.** Its GI50 is < 10 nM.

**Q.** And the TGI [27]?
**A.** The TGI was < 10 nM.

**Q.** And the GI50 [28]?
**A.** The GI50 was < 10 nM.

**Q.** And the TGI [28]?
**A.** Its TGI is > 100000 nM.

**Q.** What about the GI50 [29] of the same molecule?
**A.** Its GI50 is < 10 nM.

**Q.** What about the TGI [29] of the same molecule?
**A.** Its TGI is 1530 nM.

**Q.** What about the GI50 [30] of the same molecule?
**A.** Its GI50 is < 10 nM.

**Q.** What about the TGI [30] of the same molecule?
**A.** Its TGI is > 60600 nM.

**Q.** What about the GI50 [31] of the same molecule?
**A.** Its GI50 is < 10 nM.

**Q.** What about the TGI [31] of the same molecule?
**A.** The TGI was > 67700 nM.

**Q.** What about the GI50 [32] of the same molecule?
**A.** Its GI50 is < 10 nM.

**Q.** What about the GI50 [33] of the same molecule?
**A.** Its GI50 is < 10 nM.

**Q.** And the TGI [33]?
**A.** The TGI was > 100000 nM.

**Q.** What about the GI50 [34] of the same molecule?
**A.** The GI50 was < 10 nM.

**Q.** What about the TGI [34] of the same molecule?
**A.** The TGI was > 100000 nM.

**Q.** And the GI50 [35]?
**A.** Its GI50 is 83400 nM.

**Q.** What about the TGI [35] of the same molecule?
**A.** Its TGI is > 100000 nM.

**Q.** And the GI50 [36]?
**A.** The GI50 was < 10 nM.

**Q.** And the TGI [36]?
**A.** The TGI was > 37100 nM.

**Q.** What about the GI50 [37] of the same molecule?
**A.** Its GI50 is < 10 nM.

**Q.** What about the TGI [37] of the same molecule?
**A.** The TGI was > 100000 nM.

**Q.** What about the GI50 [38] of the same molecule?
**A.** Its GI50 is 19600 nM.

**Q.** And the TGI [38]?
**A.** Its TGI is > 100000 nM.

**Q.** What about the GI50 [39] of the same molecule?
**A.** Its GI50 is 8620 nM.

**Q.** And the TGI [39]?
**A.** The TGI was > 100000 nM.

**Q.** And the GI50 [40]?
**A.** The GI50 was < 10 nM.

**Q.** And the TGI [40]?
**A.** Its TGI is > 100000 nM.

**Q.** What about the GI50 [41] of the same molecule?
**A.** Its GI50 is < 10 nM.

**Q.** And the TGI [41]?
**A.** The TGI was < 10 nM.

**Q.** What about the GI50 [42] of the same molecule?
**A.** Its GI50 is < 10 nM.

**Q.** What about the TGI [42] of the same molecule?
**A.** The TGI was 4560 nM.

**Q.** And the TGI [43]?
**A.** The TGI was > 100000 nM.

**Q.** And the GI50 [44]?
**A.** The GI50 was < 10 nM.

**Q.** What about the TGI [44] of the same molecule?
**A.** Its TGI is > 100000 nM.

**Q.** And the GI50 [45]?
**A.** The GI50 was < 10 nM.

**Q.** What about the TGI [45] of the same molecule?
**A.** Its TGI is > 100000 nM.

**Q.** What about the GI50 [46] of the same molecule?
**A.** Its GI50 is < 10 nM.

**Q.** What about the TGI [46] of the same molecule?
**A.** Its TGI is > 100000 nM.

**Q.** What about the GI50 [47] of the same molecule?
**A.** The GI50 was < 10 nM.

**Q.** What about the TGI [47] of the same molecule?
**A.** Its TGI is < 10 nM.

**Q.** What about the GI50 [48] of the same molecule?
**A.** Its GI50 is < 10 nM.

**Q.** And the TGI [48]?
**A.** The TGI was > 100000 nM.

**Q.** And the GI50 [49]?
**A.** The GI50 was < 10 nM.

**Q.** What about the TGI [49] of the same molecule?
**A.** Its TGI is > 64200 nM.

**Q.** What about the GI50 [50] of the same molecule?
**A.** Its GI50 is < 10 nM.

**Q.** What about the TGI [50] of the same molecule?
**A.** Its TGI is > 100000 nM.

**Q.** And the GI50 [51]?
**A.** The GI50 was < 10 nM.

**Q.** And the TGI [51]?
**A.** The TGI was > 100000 nM.

**Q.** What about the GI50 [52] of the same molecule?
**A.** The GI50 was < 10 nM.

**Q.** And the GI50 [53]?
**A.** Its GI50 is < 10 nM.

**Q.** What about the TGI [53] of the same molecule?
**A.** The TGI was > 100000 nM.

**Q.** What about the GI50 [54] of the same molecule?
**A.** The GI50 was < 10 nM.

**Q.** And the TGI [54]?
**A.** The TGI was > 100000 nM.

**Q.** And the GI50 [55]?
**A.** Its GI50 is 3690 nM.

**Q.** What about the TGI [55] of the same molecule?
**A.** The TGI was > 100000 nM.
